Laboratory results reported in patent US20180118708A1, “CYCLIC COMPOUND” (Takeda Pharmaceutical Company Limited, priority 2015, published 2018).

target: T1, TLR4 (Mus musculus, UniProt Q9QUK6); test: Inhibitory effect with respect to NO production (LPS/interferon γ stimulated RAW264.7 cells); assay type: cell-based, murine; conditions: test compound 100 nM, LPS 1.25 ng/mL + mouse interferon γ 0.2 ng/mL, nitrite ion in culture supernatant
T1 construct: endogenous in cells; host or cells: RAW264.7 (murine macrophage cell line)
T1 sequence (Q9QUK6 26-835): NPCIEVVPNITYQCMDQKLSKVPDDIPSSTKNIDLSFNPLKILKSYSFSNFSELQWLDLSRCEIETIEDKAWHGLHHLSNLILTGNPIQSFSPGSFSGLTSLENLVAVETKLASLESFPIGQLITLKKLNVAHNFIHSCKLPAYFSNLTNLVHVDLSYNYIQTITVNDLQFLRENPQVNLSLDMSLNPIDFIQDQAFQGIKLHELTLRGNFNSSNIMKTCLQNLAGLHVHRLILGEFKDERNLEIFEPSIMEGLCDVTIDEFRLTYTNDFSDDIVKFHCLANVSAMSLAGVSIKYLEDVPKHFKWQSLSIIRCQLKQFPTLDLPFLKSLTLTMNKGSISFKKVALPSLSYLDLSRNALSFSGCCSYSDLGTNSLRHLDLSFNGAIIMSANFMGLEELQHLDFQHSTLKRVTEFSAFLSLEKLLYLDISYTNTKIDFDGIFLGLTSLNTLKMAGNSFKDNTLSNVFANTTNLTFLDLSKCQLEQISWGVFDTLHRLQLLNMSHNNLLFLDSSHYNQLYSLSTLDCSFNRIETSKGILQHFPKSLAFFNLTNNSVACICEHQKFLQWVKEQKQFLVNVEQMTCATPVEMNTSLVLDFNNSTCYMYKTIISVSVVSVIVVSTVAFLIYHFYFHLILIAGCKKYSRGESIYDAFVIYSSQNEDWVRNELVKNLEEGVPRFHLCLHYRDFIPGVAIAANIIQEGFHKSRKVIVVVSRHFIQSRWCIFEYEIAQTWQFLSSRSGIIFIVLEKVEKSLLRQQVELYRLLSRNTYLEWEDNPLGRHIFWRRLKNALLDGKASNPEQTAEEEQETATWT
T1 sequence (Q9JHF9 19-160 partner): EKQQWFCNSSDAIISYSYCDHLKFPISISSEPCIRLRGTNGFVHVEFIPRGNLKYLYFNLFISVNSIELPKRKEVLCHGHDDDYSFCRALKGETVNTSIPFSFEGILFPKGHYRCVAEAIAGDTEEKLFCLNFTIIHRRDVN
Description: Inhibitory Effect With Respect to NO Production
The inhibitory effect on TLR4 was determined using the inhibition rate due to the test compound with respect to NO production as a result of addition of lipopolysaccharide (LPS) using murine macrophage cell line RAW264.7. The cells were adjusted to 2×10^6 cells/mL using RPM1-1640 culture medium (phenol red free) supplemented with 10% inactivated bovine fetal serum, and were plated on 384 well plate so as to contain 6×10^4 cells/30 μL per well. Thereafter the cells were cultured at 37° C. overnight under 5% CO2/95% air. The test compound dissolved in DMSO was diluted 200 times using RPM1-1640 culture medium and adjusted so as to form a compound concentration of 500 nM. The prepared test compound 10 μL (final concentration 100 nM) was added to the cells, and LPS (Sigma) and mouse interferon γ (Wako Pure Chemicals) were added in amounts of 10 μL so as to form final concentrations of 1.25 ng/mL and 0.2 ng/mL respectively. The cells were further cultured overnight, and then the nitrite ion (stable NO metabolite) concentration in the culture supernatant was measured as an index of NO production. The nitrite ion concentration was assayed by adding 10 μL of 20 μg/mL 2,3-diamino naphthalene (DAN) dissolved in 0.2N HCl to 20 μL culture supernatant, incubating at room temperature for ten minutes, and then adding 10 μL of 0.5N NaOH, and measuring the fluorescent value at 460 nm (excitation wavelength 355 nm) using an EnVision plate reader (Perkin Elmer). The NO production inhibition rate (%) was calculated using the value without the addition of stimulating agent as control of 100% inhibition, and the value without the addition of the compound as control of 0% inhibition.

| NO production inhibitory effect at 100 nM (% inhibition) | SMILES |
| --- | --- |
| 100 | CCOC(=O)C1=CC2(CCC1S(=O)(=O)Cc1ccc(F)cc1Br)O[C@H](CO)[C@@H](CO)O2 (stereo partly drawn) [Compound 17, ethyl (2R,3R)-8-((2-bromo-4-fluorobenzyl)sulfonyl)-2,3-bis(hydroxymethyl)-1,4-dioxaspiro[4.5]dec-6-ene-7-carboxylate] |
| 110 | CCOC(=O)C1=CC2(CCC1S(=O)(=O)Cc1ccc(F)cc1Cl)O[C@H](COC)[C@@H](COC)O2 (stereo partly drawn) [Compound 11, ethyl (2R,3R)-8-((2-chloro-4-fluorobenzyl)sulfonyl)-2,3-bis(methoxymethyl)-1,4-dioxaspiro[4.5]dec-6-ene-7-carboxylate] |
| 100 | CCOC(=O)C1=CC2(CCC1S(=O)(=O)Cc1cc(F)ccc1Cl)O[C@H](CO)[C@@H](CO)O2 (stereo partly drawn) [Compound 21, ethyl (2R,3R)-8-((2-chloro-5-fluorobenzyl)sulfonyl)-2,3-bis(hydroxymethyl)-1,4-dioxaspiro[4.5]dec-6-ene-7-carboxylate] |
| 100 | CCOC(=O)C1=CC2(CCC1S(=O)(=O)Cc1cc(Cl)ccc1F)O[C@H](CO)[C@@H](CO)O2 (stereo partly drawn) [Compound 4, ethyl (2R,3R)-8-((5-chloro-2-fluorobenzyl)sulfonyl)-2,3-bis(hydroxymethyl)-1,4-dioxaspiro[4.5]dec-6-ene-7-carboxylate] |
| 100 | CCOC(=O)C1=CC2(CCC1S(=O)(=O)Cc1cccc(OC)c1)O[C@H](CO)[C@@H](CO)O2 (stereo partly drawn) [Compound 13, ethyl (2R,3R)-2,3-bis(hydroxymethyl)-8-((3-methoxybenzyl)sulfonyl)-1,4-dioxaspiro[4.5]dec-6-ene-7-carboxylate] |
| 100 | CCOC(=O)C1=CC2(CCC1S(=O)(=O)Cc1ccccc1Cl)O[C@@H](CO)[C@H](CO)O2 (stereo partly drawn) [Compound 23, ethyl (2S,3S)-8-((2-chlorobenzyl)sulfonyl)-2,3-bis(hydroxymethyl)-1,4-dioxaspiro[4.5]dec-6-ene-7-carboxylate] |
| 103 | CCOC(=O)C1=CC2(CC[C@H]1S(=O)(=O)Cc1ccccc1Cl)O[C@H](CO)[C@@H](CO)O2 [Compound 31, ethyl (2R,3R,8R)-8-((2-chlorobenzyl)sulfonyl)-2,3-bis(hydroxymethyl)-1,4-dioxaspiro[4.5]dec-6-ene-7-carboxylate] |
| 110 | CCOC(=O)C1=CC2(CCC1S(=O)(=O)Cc1c(C)cccc1Cl)O[C@@H](CO)[C@H](CO)O2 (stereo partly drawn) [Compound 26, ethyl (2S,3S)-8-((2-chloro-6-methylbenzyl)sulfonyl)-2,3-bis(hydroxymethyl)-1,4-dioxaspiro[4.5]dec-6-ene-7-carboxylate] |
| 94 | C#CCCCCOC[C@@H]1COC2(C=C(C(=O)OCC)C(S(=O)(=O)Cc3ccc(F)cc3Cl)CC2)O1 (stereo partly drawn) [Compound 28, ethyl (2R)-8-((2-chloro-4-fluorobenzyl)sulfonyl)-2-((hex-5-yn-1-yloxy)methyl)-1,4-dioxaspiro[4.5]dec-6-ene-7-carboxylate] |
| 100 | CCOC(=O)C1=CC2(CCC1S(=O)(=O)Cc1cccc(C)c1)O[C@H](CO)[C@@H](CO)O2 (stereo partly drawn) [Compound 12, ethyl (2R,3R)-2,3-bis(hydroxymethyl)-8-((3-methylbenzyl)sulfonyl)-1,4-dioxaspiro[4.5]dec-6-ene-7-carboxylate] |
| 86 | CCOC(=O)C1=CC2(CCC1S(=O)(=O)Cc1ccc(F)cc1Cl)OC[C@H](CNC(=O)OCc1ccccc1)O2 (stereo partly drawn) [Compound 29, ethyl (2S)-2-((((benzyloxy)carbonyl)amino)methyl)-8-((2-chloro-4-fluorobenzyl)sulfonyl)-1,4-dioxaspiro[4.5]dec-6-ene-7-carboxylate] |
| 114 | CCOC(=O)C1=CC2(CC[C@H]1S(=O)(=O)Cc1ccccc1Cl)O[C@@H](CO)[C@H](CO)O2 [Compound 32, ethyl (2S,3S,8R)-8-((2-chlorobenzyl)sulfonyl)-2,3-bis(hydroxymethyl)-1,4-dioxaspiro[4.5]dec-6-ene-7-carboxylate] |
| 106 | CCOC(=O)C1=CC2(CC[C@H]1S(=O)(=O)Cc1cccc(Cl)c1)O[C@H](CO)[C@@H](CO)O2 [Compound 30, ethyl (2R,3R,8R)-8-((3-chlorobenzyl)sulfonyl)-2,3-bis(hydroxymethyl)-1,4-dioxaspiro[4.5]dec-6-ene-7-carboxylate] |
| 100 | CCOC(=O)C1=CC2(CCC1S(=O)(=O)Cc1ccc(F)cc1Cl)O[C@H](C)[C@@H](C)O2 (stereo partly drawn) [Compound 18, ethyl (2R,3R)-8-((2-chloro-4-fluorobenzyl)sulfonyl)-2,3-dimethyl-1,4-dioxaspiro[4.5]dec-6-ene-7-carboxylate] |

| SMILES | NO production inhibitory effect at 100 nM (% inhibition) |
| --- | --- |
| CCOC(=O)C1=CC2(CCC1S(=O)(=O)Cc1ccc(F)cc1Cl)O[C@H](COC(=O)CN)[C@@H](COC(=O)CN)O2 (stereo partly drawn) [Compound 16, ethyl (2R,3R)-2,3-bis((2-aminoacetoxy)methyl)-8-((2-chloro-4-fluorobenzyl)sulfonyl)-1,4-dioxaspiro[4.5]dec-6-ene-7-carboxylate] | 100 |
| CCOC(=O)C1=CC2(CCC1S(=O)(=O)Cc1ccc(F)cc1Cl)O[C@H](COC(C)=O)[C@@H](COC(C)=O)O2 (stereo partly drawn) [Compound 10, ethyl (2R,3R)-2,3-bis(acetoxymethyl)-8-((2-chloro-4-fluorobenzyl)sulfonyl)-1,4-dioxaspiro[4.5]dec-6-ene-7-carboxylate] | 110 |
| CCOC(=O)C1=CC2(CCC1S(=O)(=O)Cc1ccc(F)cc1Cl)OC[C@@H](CNC(=O)OC(C)(C)C)O2 (stereo partly drawn) [Compound 27, ethyl (2R)-2-(((tert-butoxycarbonyl)amino)methyl)-8-((2-chloro-4-fluorobenzyl)sulfonyl)-1,4-dioxaspiro[4.5]dec-6-ene-7-carboxylate] | 98 |

same assay, conditions: test compound 100 nM, LPS 1.25 ng/mL + mouse interferon γ 0.2 ng/mL, nitrite ion in culture supernatant, 0.1 µM

| NO production inhibitory effect at 100 nM (% inhibition) | SMILES |
| --- | --- |
| 75 | CCOC(=O)C1=CC2(CCC1S(=O)(=O)Cc1ccc(F)cc1Cl)O[C@H](CO)[C@@H](CO)O2 (single isomer, unassigned) [Compound 15] |
| 110 | CCOC(=O)C1=CC2(CCC1S(=O)(=O)C(C)c1ccc(F)cc1Cl)O[C@H](CO)[C@@H](CO)O2 (single isomer, unassigned) [Compound 19] |
| 110 | CCOC(=O)C1=CC2(CCC1S(=O)(=O)Cc1ccc(F)cc1Cl)OC[C@@H](CO)O2 (stereo partly drawn) [Compound 9, ethyl (2R)-8-((2-chloro-4-fluorobenzyl)sulfonyl)-2-(hydroxymethyl)-1,4-dioxaspiro[4.5]dec-6-ene-7-carboxylate] |
| 77 | CCOC(=O)C1=CC2(CCC1S(=O)(=O)C(C)c1ccc(F)cc1Cl)O[C@H](CO)[C@@H](CO)O2 (single isomer, unassigned) [Compound 20] |
| 92 | CCOC(=O)C1=CC2(CCC1S(=O)(=O)Cc1ccc(F)cc1Cl)O[C@@H](CO)[C@H](CO)O2 (single isomer, unassigned) [Compound 6] |
